# Data taken from ChEMBL document CHEMBL1153275, “Tyrokeradines A and B, new bromotyrosine alkaloids with an imidazolyl-quinolinone moiety from a verongid sponge” (2009).
# Legend:
# Assay type in all cases: functional
# Staphylococcus aureus = experiment: Antimicrobial activity against Staphylococcus aureus
# Aspergillus niger = experiment: Antimicrobial activity against Aspergillus niger
# Micrococcus luteus = experiment: Antimicrobial activity against Micrococcus luteus
# Candida albicans = experiment: Antimicrobial activity against Candida albicans
# Cryptococcus neoformans = experiment: Antimicrobial activity against Cryptococcus neoformans
# [1] = tested on: Trichophyton mentagrophytes; experiment: Antimicrobial activity against Trichophyton mentagrophytes
MIC (Staphylococcus aureus),MIC (Aspergillus niger),MIC (Micrococcus luteus),MIC (Candida albicans),MIC (Cryptococcus neoformans),MIC [1],SMILES
> 25 µg/mL,> 25 µg/mL,> 25 µg/mL,> 25 µg/mL,> 25 µg/mL,> 25 µg/mL,C[N+](C)(C)CCCOc1c(Br)cc(C/C(=N\O)C(=O)NCCc2nc(N)[nH]c2-c2cc(O)c3[nH]cc(O)c(=O)c3c2O)cc1Br [TYROKERADINE A]
25 µg/mL,12.5 µg/mL,25 µg/mL,12.5 µg/mL,12.5 µg/mL,25 µg/mL,NCCCOc1c(Br)cc(C/C(=N\O)C(=O)NCCc2nc(N)[nH]c2-c2cc(O)c3[nH]cc(O)c(=O)c3c2O)cc1Br [TYROKERADINE B]
